Laboratory results published in PMC5218480 (PLoS ONE, 2017).

Tested on: MV-4-11 cells
Experiment: Gene expression microarray analysis (Affymetrix PrimeView) and GSEA
Type: cell-based, human
Parameters: RFU PODN (11730768_x_at) / Fold change /veh PODN (11730768_x_at) / RFU LINC00158 (11744669_a_at) / Fold change /veh LINC00158 (11744669_a_at) / RFU DUSP10 (11751237_a_at) / Fold change /veh DUSP10 (11751237_a_at) / RFU ID3 (11757404_x_at) / Fold change /veh ID3 (11757404_x_at) / RFU PLEKHG5 (11737974_s_at) / Fold change /veh PLEKHG5 (11737974_s_at) / RFU LRRC4B (11730491_at) / Fold change /veh LRRC4B (11730491_at) / RFU GIMAP4 (11747438_a_at) / Fold change /veh GIMAP4 (11747438_a_at) / RFU KRT8 (11758183_x_at) / Fold change /veh KRT8 (11758183_x_at) / RFU CNN1 (11734310_a_at) / Fold change /veh CNN1 (11734310_a_at) / RFU VPS37D (11726825_at) / Fold change /veh VPS37D (11726825_at) / RFU C10orf10 (11716522_x_at) / Fold change /veh C10orf10 (11716522_x_at) / RFU KIR2DL2 /// KIR2DL4 /// KIR2DL5A /// KIR2DL5B /// KIR2DS1 /// KIR2DS2 /// KIR2DS3 /// KIR2DS4 /// KIR3DL3 /// KIR3DL3 /// KIR3DS1 (11738374_at) / Fold change /veh KIR2DL2 /// KIR2DL4 /// KIR2DL5A /// KIR2DL5B /// KIR2DS1 /// KIR2DS2 /// KIR2DS3 /// KIR2DS4 /// KIR3DL3 /// KIR3DL3 /// KIR3DS1 (11738374_at) / RFU C1QL1 (11718748_at) / Fold change /veh C1QL1 (11718748_at) / RFU TMPRSS4 (11747572_a_at) / Fold change /veh TMPRSS4 (11747572_a_at) / RFU HAMP (11756126_x_at) / Fold change /veh HAMP (11756126_x_at) / RFU RNFT2 (11725882_a_at) / Fold change /veh RNFT2 (11725882_a_at) / RFU NR4A2 (11747474_a_at) / Fold change /veh NR4A2 (11747474_a_at) / RFU ABCC12 (11746883_a_at) / Fold change /veh ABCC12 (11746883_a_at) / RFU TMEM136 (11760407_x_at) / Fold change /veh TMEM136 (11760407_x_at) / RFU CLDN22 /// WWC2 (11732394_at) / Fold change /veh CLDN22 /// WWC2 (11732394_at) / RFU HLA-DPB1 (11760878_x_at) / Fold change /veh HLA-DPB1 (11760878_x_at) / RFU SPINT1 (11716480_a_at) / Fold change /veh SPINT1 (11716480_a_at) / RFU GAP43 (11754022_s_at) / Fold change /veh GAP43 (11754022_s_at) / RFU A4GNT (11735810_at) / Fold change /veh A4GNT (11735810_at) / RFU PRB3 (11715151_x_at) / Fold change /veh PRB3 (11715151_x_at) / RFU TUBB4B (11761932_at) / Fold change /veh TUBB4B (11761932_at) / RFU CAPN14 (11732068_a_at) / Fold change /veh CAPN14 (11732068_a_at) / RFU TMCC2 (11721928_a_at) / Fold change /veh TMCC2 (11721928_a_at) / RFU IRGQ (11745062_a_at) / Fold change /veh IRGQ (11745062_a_at) / RFU FAM174B (11720279_a_at) / Fold change /veh FAM174B (11720279_a_at) / RFU TMPRSS4 (11748680_a_at) / Fold change /veh TMPRSS4 (11748680_a_at) / RFU FAM212B (11763350_a_at) / Fold change /veh FAM212B (11763350_a_at) / RFU PLEKHG5 (11743358_a_at) / Fold change /veh PLEKHG5 (11743358_a_at) / RFU ZSCAN30 (11745921_a_at) / Fold change /veh ZSCAN30 (11745921_a_at) / RFU CMKLR1 (11741424_a_at) / Fold change /veh CMKLR1 (11741424_a_at) / RFU LOC101060620 /// MAPK8IP1 (11723275_at) / Fold change /veh LOC101060620 /// MAPK8IP1 (11723275_at) / RFU SPTSSB (11747773_x_at) / Fold change /veh SPTSSB (11747773_x_at) / RFU PRSS12 (11739890_at) / Fold change /veh PRSS12 (11739890_at) / RFU BIN1 (11741810_x_at) / Fold change /veh BIN1 (11741810_x_at) / RFU WNT11 (11732464_a_at) / Fold change /veh WNT11 (11732464_a_at) / RFU C10orf10 (11716521_a_at) / Fold change /veh C10orf10 (11716521_a_at) / RFU C5orf56 (11738089_at) / Fold change /veh C5orf56 (11738089_at) / RFU CYB561 (11721691_x_at) / Fold change /veh CYB561 (11721691_x_at) / RFU ANKRD19P (11752326_a_at) / Fold change /veh ANKRD19P (11752326_a_at) / RFU OR2T12 /// OR2T33 /// OR2T8 (11738714_s_at) / Fold change /veh OR2T12 /// OR2T33 /// OR2T8 (11738714_s_at) / RFU VCAN (11748164_a_at) / Fold change /veh VCAN (11748164_a_at) / RFU JSRP1 (11732532_at) / Fold change /veh JSRP1 (11732532_at) / RFU KRTAP10-11 (11738290_x_at) / Fold change /veh KRTAP10-11 (11738290_x_at) / RFU MYO3A (11730013_a_at) / Fold change /veh MYO3A (11730013_a_at) / RFU EBF3 (11725865_a_at) / Fold change /veh EBF3 (11725865_a_at) / RFU CAMK2N1 (11719241_x_at) / Fold change /veh CAMK2N1 (11719241_x_at) / RFU C5orf56 (11738088_a_at) / Fold change /veh C5orf56 (11738088_a_at) / RFU OLFML3 (11715873_a_at) / Fold change /veh OLFML3 (11715873_a_at) / RFU LOC100653217 /// NTM (11731650_a_at) / Fold change /veh LOC100653217 /// NTM (11731650_a_at) / RFU MAPK11 (11762145_a_at) / Fold change /veh MAPK11 (11762145_a_at) / RFU FIZ1 (11724087_x_at) / Fold change /veh FIZ1 (11724087_x_at) / RFU OASL (11726364_x_at) / Fold change /veh OASL (11726364_x_at) / RFU SOX15 (11748057_x_at) / Fold change /veh SOX15 (11748057_x_at) / RFU CD79A (11719716_a_at) / Fold change /veh CD79A (11719716_a_at) / RFU HIST1H1D (11736915_at) / Fold change /veh HIST1H1D (11736915_at) / RFU CASKIN2 (11723855_a_at) / Fold change /veh CASKIN2 (11723855_a_at) / RFU LOC730098 (11760151_x_at) / Fold change /veh LOC730098 (11760151_x_at) / RFU OR4N2 (11742367_at) / Fold change /veh OR4N2 (11742367_at) / RFU PRRT2 (11749266_a_at) / Fold change /veh PRRT2 (11749266_a_at) / RFU SNX32 (11753110_a_at) / Fold change /veh SNX32 (11753110_a_at) / RFU CDHR5 (11726645_a_at) / Fold change /veh CDHR5 (11726645_a_at) / RFU RCAN1 (11760418_a_at) / Fold change /veh RCAN1 (11760418_a_at) / RFU FAM167A (11723789_a_at) / Fold change /veh FAM167A (11723789_a_at) / RFU FAM26E (11764081_at) / Fold change /veh FAM26E (11764081_at) / RFU ISYNA1 (11749810_s_at) / Fold change /veh ISYNA1 (11749810_s_at) / RFU ACY1 (11761880_at) / Fold change /veh ACY1 (11761880_at) / RFU 11764098_at / Fold change /veh 11764098_at / RFU SAMD14 (11745864_x_at) / Fold change /veh SAMD14 (11745864_x_at) / RFU NPB (11741838_a_at) / Fold change /veh NPB (11741838_a_at) / RFU TMPRSS6 (11731388_a_at) / Fold change /veh TMPRSS6 (11731388_a_at) / RFU KRTAP10-2 (11738614_at) / Fold change /veh KRTAP10-2 (11738614_at) / RFU ARHGAP8 /// PRR5-ARHGAP8 (11727945_x_at) / Fold change /veh ARHGAP8 /// PRR5-ARHGAP8 (11727945_x_at) / RFU KRTAP5-7 /// NADSYN1 (11734609_at) / Fold change /veh KRTAP5-7 /// NADSYN1 (11734609_at) / RFU RASL12 (11751679_a_at) / Fold change /veh RASL12 (11751679_a_at) / RFU CDKN2B (11736163_a_at) / Fold change /veh CDKN2B (11736163_a_at) / RFU PRF1 (11729649_at) / Fold change /veh PRF1 (11729649_at) / RFU, ZNF638 /// ZNF638-IT1 / Fold change vs veh, ZNF638 /// ZNF638-IT1 / RFU, PANK3 / Fold change vs veh, PANK3 / RFU, SH3YL1 / Fold change vs veh, SH3YL1 / RFU, ZEB2 / Fold change vs veh, ZEB2 / RFU, NRIP1 / Fold change vs veh, NRIP1 / RFU, PTTG1IP / Fold change vs veh, PTTG1IP / RFU, CAPN2 / Fold change vs veh, CAPN2 / RFU, MED14 / Fold change vs veh, MED14 / RFU, SNORA58 / Fold change vs veh, SNORA58 / RFU, C1orf63 / Fold change vs veh, C1orf63 / RFU, LRRFIP1 / Fold change vs veh, LRRFIP1 / RFU, NDUFAF7 / Fold change vs veh, NDUFAF7 / RFU, SLC12A2 / Fold change vs veh, SLC12A2 / RFU, IBTK / Fold change vs veh, IBTK / RFU, ESF1 / Fold change vs veh, ESF1 / Fold change vs veh, TMEM50B / RFU, TAOK1 / Fold change vs veh, TAOK1 / RFU, ACBD3 / Fold change vs veh, ACBD3 / RFU, TMA16 / Fold change vs veh, TMA16 / RFU, RWDD3 / Fold change vs veh, RWDD3 / RFU, BCAT1 / Fold change vs veh, BCAT1 / RFU, EDEM3 / Fold change vs veh, EDEM3 / RFU, TMEM33 / Fold change vs veh, TMEM33 / RFU, WDR75 / Fold change vs veh, WDR75 / RFU, AHCTF1 / Fold change vs veh, AHCTF1 / RFU, TFRC / Fold change vs veh, TFRC / RFU, ZDHHC17 / Fold change vs veh, ZDHHC17 / RFU, NOM1 / Fold change vs veh, NOM1 / RFU, ARL8B / Fold change vs veh, ARL8B / RFU, ZBTB11 / Fold change vs veh, ZBTB11 / RFU, TAMM41 / Fold change vs veh, TAMM41 / RFU, KIAA1704 /// LOC100996395 / Fold change vs veh, KIAA1704 /// LOC100996395 / RFU, ING1 / Fold change vs veh, ING1 / RFU, TRMT61B / Fold change vs veh, TRMT61B / RFU, FUBP3 / Fold change vs veh, FUBP3 / RFU, TP53 / Fold change vs veh, TP53 / RFU, TNKS2 / Fold change vs veh, TNKS2 / RFU, ZFP14 / Fold change vs veh, ZFP14 / RFU, ACTR2 / Fold change vs veh, ACTR2 / RFU, PPP3R1 / Fold change vs veh, PPP3R1 / RFU, PIK3R1 / Fold change vs veh, PIK3R1 / RFU, HNRNPA1 / Fold change vs veh, HNRNPA1 / RFU, RNF170 / Fold change vs veh, RNF170 / RFU, ZNF28 / Fold change vs veh, ZNF28 / RFU, RNGTT / Fold change vs veh, RNGTT / RFU, OGT / Fold change vs veh, OGT / RFU, BRD1 / Fold change vs veh, BRD1 / RFU, MARS / Fold change vs veh, MARS / RFU, ZNF655 / Fold change vs veh, ZNF655 / RFU, FAHD1 / Fold change vs veh, FAHD1 / RFU, BDP1 / Fold change vs veh, BDP1 / RFU, LRRCC1 / Fold change vs veh, LRRCC1 / RFU, ARID1A / Fold change vs veh, ARID1A / RFU, ZNF146 / Fold change vs veh, ZNF146 / RFU, ZNF330 / Fold change vs veh, ZNF330 / RFU, GPN3 / Fold change vs veh, GPN3 / RFU, C9orf123 / Fold change vs veh, C9orf123 / RFU, N4BP2L2 / Fold change vs veh, N4BP2L2 / RFU, ARFIP1 / Fold change vs veh, ARFIP1 / RFU, FAM179B / Fold change vs veh, FAM179B / RFU, BCL10 / Fold change vs veh, BCL10 / RFU, UHRF1BP1L / Fold change vs veh, UHRF1BP1L / RFU, BET1 / Fold change vs veh, BET1 / RFU, CNOT2 / Fold change vs veh, CNOT2 / RFU, ZNF268 / Fold change vs veh, ZNF268 / Fold change vs veh, ZNF507 / RFU, DGCR2 / Fold change vs veh, DGCR2 / RFU, WDSUB1 / Fold change vs veh, WDSUB1 / Fold change vs veh, HSP90B1 /// MIR3652 / RFU, ADSS / Fold change vs veh, ADSS / RFU, GK / Fold change vs veh, GK / RFU, ZNF148 / Fold change vs veh, ZNF148 / RFU, TAF9 / Fold change vs veh, TAF9 / RFU, SLC1A5 / Fold change vs veh, SLC1A5 / RFU, SLMO2 / Fold change vs veh, SLMO2 / RFU, ABCC4 / Fold change vs veh, ABCC4 / RFU, LOC101060439 /// RAP1B / Fold change vs veh, LOC101060439 /// RAP1B / RFU, RFX7 / Fold change vs veh, RFX7 / RFU, GTPBP10 / Fold change vs veh, GTPBP10 / RFU, CNEP1R1 / Fold change vs veh, CNEP1R1 / RFU, BIVM-ERCC5 /// ERCC5 / Fold change vs veh, BIVM-ERCC5 /// ERCC5 / RFU, ILF3 / Fold change vs veh, ILF3 / RFU 11762660_at / Fold change /veh 11762660_at / RFU VCAN (11757783_s_at) / Fold change /veh VCAN (11757783_s_at) / RFU DDX43 (11728927_at) / Fold change /veh DDX43 (11728927_at) / RFU KRT8 (11758188_x_at) / Fold change /veh KRT8 (11758188_x_at) / RFU NKD1 (11759106_at) / Fold change /veh NKD1 (11759106_at) / RFU SRD5A1 (11742802_a_at) / Fold change /veh SRD5A1 (11742802_a_at) / RFU TPSAB1 /// TPSB2 (11721975_s_at) / Fold change /veh TPSAB1 /// TPSB2 (11721975_s_at) / RFU GSTM3 (11746129_a_at) / Fold change /veh GSTM3 (11746129_a_at) / RFU IL23R (11737362_x_at) / Fold change /veh IL23R (11737362_x_at) / RFU TMEM51 (11727254_a_at) / Fold change /veh TMEM51 (11727254_a_at) / RFU PIWIL2 (11732686_x_at) / Fold change /veh PIWIL2 (11732686_x_at) / RFU ORM1 (11744905_x_at) / Fold change /veh ORM1 (11744905_x_at) / RFU CCDC152 (11743942_at) / Fold change /veh CCDC152 (11743942_at) / RFU ECM1 (11717891_a_at) / Fold change /veh ECM1 (11717891_a_at) / RFU IL23R (11748794_a_at) / Fold change /veh IL23R (11748794_a_at) / RFU TNFAIP8L3 (11732012_x_at) / Fold change /veh TNFAIP8L3 (11732012_x_at) / RFU MBOAT4 (11741988_at) / Fold change /veh MBOAT4 (11741988_at) / RFU 11764193_at / Fold change /veh 11764193_at / RFU TMEM53 (11763286_at) / Fold change /veh TMEM53 (11763286_at) / RFU MAGEB2 (11727129_at) / Fold change /veh MAGEB2 (11727129_at) / RFU TMEM200A (11744735_a_at) / Fold change /veh TMEM200A (11744735_a_at) / RFU CCDC152 (11751479_a_at) / Fold change /veh CCDC152 (11751479_a_at) / RFU FAM211A (11726209_a_at) / Fold change /veh FAM211A (11726209_a_at) / RFU RGS16 (11746705_a_at) / Fold change /veh RGS16 (11746705_a_at) / RFU VCAN (11755009_s_at) / Fold change /veh VCAN (11755009_s_at) / RFU RHOB (11743442_s_at) / Fold change /veh RHOB (11743442_s_at) / RFU RGS16 (11720943_a_at) / Fold change /veh RGS16 (11720943_a_at) / RFU RGS16 (11720944_at) / Fold change /veh RGS16 (11720944_at) / RFU, VPS4B / Fold change vs veh, VPS4B / RFU, CREB1 / Fold change vs veh, CREB1 / RFU, DNAJC13 / Fold change vs veh, DNAJC13 / RFU, GNAQ / Fold change vs veh, GNAQ / RFU, CDK5R1 / Fold change vs veh, CDK5R1 / RFU, ZRANB3 / Fold change vs veh, ZRANB3 / RFU, CUL4A / Fold change vs veh, CUL4A / RFU, CCNY / Fold change vs veh, CCNY / RFU, UFL1 / Fold change vs veh, UFL1 / RFU, COG3 / Fold change vs veh, COG3 / RFU, DIAPH2 / Fold change vs veh, DIAPH2 / RFU, SKA2 / Fold change vs veh, SKA2 / RFU, AFF3 / Fold change vs veh, AFF3 / RFU, LMF1 / Fold change vs veh, LMF1 / RFU, IPO11 / Fold change vs veh, IPO11 / RFU, DFFB / Fold change vs veh, DFFB / RFU, FOXP1 / Fold change vs veh, FOXP1 / RFU, CARD8 / Fold change vs veh, CARD8 / RFU, STRN3 / Fold change vs veh, STRN3 / RFU, ADK / Fold change vs veh, ADK / RFU, RASSF2 / Fold change vs veh, RASSF2 / RFU, WIPF1 / Fold change vs veh, WIPF1 / RFU, LARP1B / Fold change vs veh, LARP1B / RFU, RASA1 / Fold change vs veh, RASA1 / RFU, RB1 / Fold change vs veh, RB1 / RFU, PPFIA1 / Fold change vs veh, PPFIA1 / RFU, MAT2A / Fold change vs veh, MAT2A / RFU, CCT5 / Fold change vs veh, CCT5 / RFU, WDR92 / Fold change vs veh, WDR92 / RFU, CUX1 / Fold change vs veh, CUX1 / RFU, TTC7A / Fold change vs veh, TTC7A / RFU, TMEM135 / Fold change vs veh, TMEM135 / RFU, DEPTOR / Fold change vs veh, DEPTOR / RFU, CPM / Fold change vs veh, CPM / RFU, DNAJB6 / Fold change vs veh, DNAJB6 / RFU, CACNA2D3 / Fold change vs veh, CACNA2D3 / RFU, DTX4 / Fold change vs veh, DTX4 / RFU, TFCP2 / Fold change vs veh, TFCP2 / RFU, GMCL1 /// GMCL1P1 / Fold change vs veh, GMCL1 /// GMCL1P1 / RFU, AEBP2 / Fold change vs veh, AEBP2 / RFU, SNHG1 /// SNORD22 /// SNORD25 /// SNORD26 /// SNORD27 /// SNORD28 /// SNORD29 /// SNORD31 / Fold change vs veh, SNHG1 /// SNORD22 /// SNORD25 /// SNORD26 /// SNORD27 /// SNORD28 /// SNORD29 /// SNORD31 / Fold change (Aza/veh), C12orf56 (ProbeSet 11735607_a_at) / Fold change (ACY-1035/veh), C12orf56 (ProbeSet 11735607_a_at) / Fold change (Aza/veh), FGFR1OP (ProbeSet 11751329_s_at) / Fold change (ACY-1035/veh), FGFR1OP (ProbeSet 11751329_s_at) / Fold change (Aza/veh), VPS36 (ProbeSet 11739960_a_at) / Fold change (ACY-1035/veh), VPS36 (ProbeSet 11739960_a_at) / RFU SYPL1 (11715823_x_at) / Fold change /veh SYPL1 (11715823_x_at) / RFU IGFBP7 (11715501_s_at) / Fold change /veh IGFBP7 (11715501_s_at) / RFU REEP3 (11722064_at) / Fold change /veh REEP3 (11722064_at) / RFU IGLL1 (11728026_x_at) / Fold change /veh IGLL1 (11728026_x_at): dose or concentration left out as unconfirmed
Details: ProbeSet 11727545_at; LIST B

Compound: Nc1ncn([C@@H]2O[C@H](CO)[C@@H](O)[C@H]2O)c(=O)n1 [azacitidine]
- Fold change vs veh, PANK3: 0.85
